test system: HCI-025 (organoid from a breast cancer xenograft); assay: CTG-3D luminescence at 96 h relative to day-0 seeding control (ratio to day 0); higher = more growth / less cytotoxicity; PDxO 3D drug screen, 96 h, CTG-3D normalised to day-0 seeding control.; details: 0.005 µM; days in culture: 218

| Compound | CTG-3D luminescence at 96 h |
| --- | --- |
| COc1cc2c(Oc3ccc4[nH]c(C)cc4c3F)ncnc2cc1OCCCN1CCCC1 [cediranib] | 2.1 |
| CC(C)n1nc(-c2ccc3oc(N)nc3c2)c2c(N)ncnc21 [sapanisertib] | 1.44 |
| Cc1cc(Nc2ncnc3ccc(NC4=NC(C)(C)CO4)cc23)ccc1Oc1ccn2ncnc2c1 [tucatinib] | 1.79 |
| C[C@H](NC(=O)CCC(F)(F)F)C(=O)N[C@@H]1C(=O)N(CCO)c2ncccc2-c2ccccc21 [crenigacestat] | 1.67 |
| C[C@]12CC[C@@H]3c4ccc(O)cc4C[C@@H](CCCCCCCCC[S+]([O-])CCCC(F)(F)C(F)(F)F)[C@H]3[C@@H]1CC[C@@H]2O (some centres not stated) [fulvestrant] | 1.97 |
| O=C(c1ccc(F)c(F)c1Nc1ccc(I)cc1F)N1CC(O)([C@@H]2CCCCN2)C1 [cobimetinib] | 1.88 |
| O=C(/C=C/c1cccnc1)NCCCCC1CCN(C(=O)c2ccccc2)CC1 [FK866] | 0.0772 |
| CS(=O)(=O)c1ccc(C(=O)Nc2ccc(Cl)c(-c3ccccn3)c2)c(Cl)c1 [vismodegib] | 2.01 |
| C=CCn1c(=O)c2cnc(Nc3ccc(N4CCN(C)CC4)cc3)nc2n1-c1cccc(C(C)(C)O)n1 [adavosertib] | 1.94 |

same assay, conditions: 0.1 µM; days in culture: 172

| Compound | CTG-3D luminescence at 96 h |
| --- | --- |
| COc1cc2c(Oc3ccc4[nH]c(C)cc4c3F)ncnc2cc1OCCCN1CCCC1 [cediranib] | 1.99 |
| CC(C)n1nc(-c2ccc3oc(N)nc3c2)c2c(N)ncnc21 [sapanisertib] | 0.407 |
| Cc1cc(Nc2ncnc3ccc(NC4=NC(C)(C)CO4)cc23)ccc1Oc1ccn2ncnc2c1 [tucatinib] | 2.2 |
| C[C@H](NC(=O)CCC(F)(F)F)C(=O)N[C@@H]1C(=O)N(CCO)c2ncccc2-c2ccccc21 [crenigacestat] | 2.23 |
| C[C@]12CC[C@@H]3c4ccc(O)cc4C[C@@H](CCCCCCCCC[S+]([O-])CCCC(F)(F)C(F)(F)F)[C@H]3[C@@H]1CC[C@@H]2O (some centres not stated) [fulvestrant] | 1.97 |
| O=C(c1ccc(F)c(F)c1Nc1ccc(I)cc1F)N1CC(O)([C@@H]2CCCCN2)C1 [cobimetinib] | 1.38 |
| O=C(/C=C/c1cccnc1)NCCCCC1CCN(C(=O)c2ccccc2)CC1 [FK866] | 0.0447 |
| CS(=O)(=O)c1ccc(C(=O)Nc2ccc(Cl)c(-c3ccccn3)c2)c(Cl)c1 [vismodegib] | 2.18 |
| C=CCn1c(=O)c2cnc(Nc3ccc(N4CCN(C)CC4)cc3)nc2n1-c1cccc(C(C)(C)O)n1 [adavosertib] | 2 |

same assay, conditions: 0.1 µM; days in culture: 209

| Compound | CTG-3D luminescence at 96 h |
| --- | --- |
| COc1cc2c(Oc3ccc4[nH]c(C)cc4c3F)ncnc2cc1OCCCN1CCCC1 [cediranib] | 1.47 |
| CC(C)n1nc(-c2ccc3oc(N)nc3c2)c2c(N)ncnc21 [sapanisertib] | 0.44 |
| Cc1cc(Nc2ncnc3ccc(NC4=NC(C)(C)CO4)cc23)ccc1Oc1ccn2ncnc2c1 [tucatinib] | 1.5 |
| C[C@H](NC(=O)CCC(F)(F)F)C(=O)N[C@@H]1C(=O)N(CCO)c2ncccc2-c2ccccc21 [crenigacestat] | 1.61 |
| C[C@]12CC[C@@H]3c4ccc(O)cc4C[C@@H](CCCCCCCCC[S+]([O-])CCCC(F)(F)C(F)(F)F)[C@H]3[C@@H]1CC[C@@H]2O (some centres not stated) [fulvestrant] | 1.66 |
| O=C(c1ccc(F)c(F)c1Nc1ccc(I)cc1F)N1CC(O)([C@@H]2CCCCN2)C1 [cobimetinib] | 1.27 |
| O=C(/C=C/c1cccnc1)NCCCCC1CCN(C(=O)c2ccccc2)CC1 [FK866] | 0.0825 |
| CS(=O)(=O)c1ccc(C(=O)Nc2ccc(Cl)c(-c3ccccn3)c2)c(Cl)c1 [vismodegib] | 1.56 |
| C=CCn1c(=O)c2cnc(Nc3ccc(N4CCN(C)CC4)cc3)nc2n1-c1cccc(C(C)(C)O)n1 [adavosertib] | 1.36 |

same assay, conditions: 0.1 µM; days in culture: 218

| Compound | CTG-3D luminescence at 96 h |
| --- | --- |
| COc1cc2c(Oc3ccc4[nH]c(C)cc4c3F)ncnc2cc1OCCCN1CCCC1 [cediranib] | 1.73 |
| CC(C)n1nc(-c2ccc3oc(N)nc3c2)c2c(N)ncnc21 [sapanisertib] | 0.421 |
| Cc1cc(Nc2ncnc3ccc(NC4=NC(C)(C)CO4)cc23)ccc1Oc1ccn2ncnc2c1 [tucatinib] | 1.43 |
| C[C@H](NC(=O)CCC(F)(F)F)C(=O)N[C@@H]1C(=O)N(CCO)c2ncccc2-c2ccccc21 [crenigacestat] | 1.69 |
| C[C@]12CC[C@@H]3c4ccc(O)cc4C[C@@H](CCCCCCCCC[S+]([O-])CCCC(F)(F)C(F)(F)F)[C@H]3[C@@H]1CC[C@@H]2O (some centres not stated) [fulvestrant] | 1.54 |
| O=C(c1ccc(F)c(F)c1Nc1ccc(I)cc1F)N1CC(O)([C@@H]2CCCCN2)C1 [cobimetinib] | 1.42 |
| O=C(/C=C/c1cccnc1)NCCCCC1CCN(C(=O)c2ccccc2)CC1 [FK866] | 0.031 |
| CS(=O)(=O)c1ccc(C(=O)Nc2ccc(Cl)c(-c3ccccn3)c2)c(Cl)c1 [vismodegib] | 1.69 |
| C=CCn1c(=O)c2cnc(Nc3ccc(N4CCN(C)CC4)cc3)nc2n1-c1cccc(C(C)(C)O)n1 [adavosertib] | 1.75 |

same assay, conditions: 1 µM; days in culture: 172

| Compound | CTG-3D luminescence at 96 h |
| --- | --- |
| COc1cc2c(Oc3ccc4[nH]c(C)cc4c3F)ncnc2cc1OCCCN1CCCC1 [cediranib] | 2.79 |
| CC(C)n1nc(-c2ccc3oc(N)nc3c2)c2c(N)ncnc21 [sapanisertib] | 0.372 |
| Cc1cc(Nc2ncnc3ccc(NC4=NC(C)(C)CO4)cc23)ccc1Oc1ccn2ncnc2c1 [tucatinib] | 2.35 |
| C[C@H](NC(=O)CCC(F)(F)F)C(=O)N[C@@H]1C(=O)N(CCO)c2ncccc2-c2ccccc21 [crenigacestat] | 3.2 |
| C[C@]12CC[C@@H]3c4ccc(O)cc4C[C@@H](CCCCCCCCC[S+]([O-])CCCC(F)(F)C(F)(F)F)[C@H]3[C@@H]1CC[C@@H]2O (some centres not stated) [fulvestrant] | 1.97 |
| O=C(c1ccc(F)c(F)c1Nc1ccc(I)cc1F)N1CC(O)([C@@H]2CCCCN2)C1 [cobimetinib] | 1.47 |
| O=C(/C=C/c1cccnc1)NCCCCC1CCN(C(=O)c2ccccc2)CC1 [FK866] | 0.0404 |
| CS(=O)(=O)c1ccc(C(=O)Nc2ccc(Cl)c(-c3ccccn3)c2)c(Cl)c1 [vismodegib] | 2.97 |
| C=CCn1c(=O)c2cnc(Nc3ccc(N4CCN(C)CC4)cc3)nc2n1-c1cccc(C(C)(C)O)n1 [adavosertib] | 1.8 |

same assay, conditions: 1 µM; days in culture: 209

| Compound | CTG-3D luminescence at 96 h |
| --- | --- |
| COc1cc2c(Oc3ccc4[nH]c(C)cc4c3F)ncnc2cc1OCCCN1CCCC1 [cediranib] | 2.18 |
| CC(C)n1nc(-c2ccc3oc(N)nc3c2)c2c(N)ncnc21 [sapanisertib] | 0.256 |
| Cc1cc(Nc2ncnc3ccc(NC4=NC(C)(C)CO4)cc23)ccc1Oc1ccn2ncnc2c1 [tucatinib] | 1.95 |
| C[C@H](NC(=O)CCC(F)(F)F)C(=O)N[C@@H]1C(=O)N(CCO)c2ncccc2-c2ccccc21 [crenigacestat] | 1.76 |
| C[C@]12CC[C@@H]3c4ccc(O)cc4C[C@@H](CCCCCCCCC[S+]([O-])CCCC(F)(F)C(F)(F)F)[C@H]3[C@@H]1CC[C@@H]2O (some centres not stated) [fulvestrant] | 1.8 |
| O=C(c1ccc(F)c(F)c1Nc1ccc(I)cc1F)N1CC(O)([C@@H]2CCCCN2)C1 [cobimetinib] | 1.15 |
| O=C(/C=C/c1cccnc1)NCCCCC1CCN(C(=O)c2ccccc2)CC1 [FK866] | 0.0624 |
| CS(=O)(=O)c1ccc(C(=O)Nc2ccc(Cl)c(-c3ccccn3)c2)c(Cl)c1 [vismodegib] | 2.47 |
| C=CCn1c(=O)c2cnc(Nc3ccc(N4CCN(C)CC4)cc3)nc2n1-c1cccc(C(C)(C)O)n1 [adavosertib] | 1.03 |

same assay, conditions: 1 µM; days in culture: 218

| Compound | CTG-3D luminescence at 96 h |
| --- | --- |
| COc1cc2c(Oc3ccc4[nH]c(C)cc4c3F)ncnc2cc1OCCCN1CCCC1 [cediranib] | 1.5 |
| CC(C)n1nc(-c2ccc3oc(N)nc3c2)c2c(N)ncnc21 [sapanisertib] | 0.231 |
| Cc1cc(Nc2ncnc3ccc(NC4=NC(C)(C)CO4)cc23)ccc1Oc1ccn2ncnc2c1 [tucatinib] | 1.02 |
| C[C@H](NC(=O)CCC(F)(F)F)C(=O)N[C@@H]1C(=O)N(CCO)c2ncccc2-c2ccccc21 [crenigacestat] | 1.75 |
| C[C@]12CC[C@@H]3c4ccc(O)cc4C[C@@H](CCCCCCCCC[S+]([O-])CCCC(F)(F)C(F)(F)F)[C@H]3[C@@H]1CC[C@@H]2O (some centres not stated) [fulvestrant] | 1.5 |
| O=C(c1ccc(F)c(F)c1Nc1ccc(I)cc1F)N1CC(O)([C@@H]2CCCCN2)C1 [cobimetinib] | 1.18 |
| O=C(/C=C/c1cccnc1)NCCCCC1CCN(C(=O)c2ccccc2)CC1 [FK866] | 0.013 |
| CS(=O)(=O)c1ccc(C(=O)Nc2ccc(Cl)c(-c3ccccn3)c2)c(Cl)c1 [vismodegib] | 1.56 |
| C=CCn1c(=O)c2cnc(Nc3ccc(N4CCN(C)CC4)cc3)nc2n1-c1cccc(C(C)(C)O)n1 [adavosertib] | 1.05 |

same assay, conditions: 10 µM; days in culture: 172

| Compound | CTG-3D luminescence at 96 h |
| --- | --- |
| COc1cc2c(Oc3ccc4[nH]c(C)cc4c3F)ncnc2cc1OCCCN1CCCC1 [cediranib] | 0.0165 |
| CC(C)n1nc(-c2ccc3oc(N)nc3c2)c2c(N)ncnc21 [sapanisertib] | 0.145 |
| Cc1cc(Nc2ncnc3ccc(NC4=NC(C)(C)CO4)cc23)ccc1Oc1ccn2ncnc2c1 [tucatinib] | 1.75 |
| C[C@H](NC(=O)CCC(F)(F)F)C(=O)N[C@@H]1C(=O)N(CCO)c2ncccc2-c2ccccc21 [crenigacestat] | 1.64 |
| C[C@]12CC[C@@H]3c4ccc(O)cc4C[C@@H](CCCCCCCCC[S+]([O-])CCCC(F)(F)C(F)(F)F)[C@H]3[C@@H]1CC[C@@H]2O (some centres not stated) [fulvestrant] | 1.21 |
| O=C(c1ccc(F)c(F)c1Nc1ccc(I)cc1F)N1CC(O)([C@@H]2CCCCN2)C1 [cobimetinib] | 0.608 |
| O=C(/C=C/c1cccnc1)NCCCCC1CCN(C(=O)c2ccccc2)CC1 [FK866] | 0.0184 |
| CS(=O)(=O)c1ccc(C(=O)Nc2ccc(Cl)c(-c3ccccn3)c2)c(Cl)c1 [vismodegib] | 1.37 |
| C=CCn1c(=O)c2cnc(Nc3ccc(N4CCN(C)CC4)cc3)nc2n1-c1cccc(C(C)(C)O)n1 [adavosertib] | 0.188 |

— the supplement of paper PMC8882468
